Results reported in PMC8151276, “An Integrated Approach toward NanoBRET Tracers for Analysis of GPCR Ligand Engagement” (Molecules, 2021).

Assays:
LGR4 = target: T1, LGR4 (Homo sapiens, UniProt Q9BXB1); assay: NanoBRET screen HiBiT-LGR4 in HEK293; type: binding
T1 construct: purchased Promega (in-house HiBiT-GPCR construct library, NanoBRET)
T1 sequence (Q9BXB1 25-951): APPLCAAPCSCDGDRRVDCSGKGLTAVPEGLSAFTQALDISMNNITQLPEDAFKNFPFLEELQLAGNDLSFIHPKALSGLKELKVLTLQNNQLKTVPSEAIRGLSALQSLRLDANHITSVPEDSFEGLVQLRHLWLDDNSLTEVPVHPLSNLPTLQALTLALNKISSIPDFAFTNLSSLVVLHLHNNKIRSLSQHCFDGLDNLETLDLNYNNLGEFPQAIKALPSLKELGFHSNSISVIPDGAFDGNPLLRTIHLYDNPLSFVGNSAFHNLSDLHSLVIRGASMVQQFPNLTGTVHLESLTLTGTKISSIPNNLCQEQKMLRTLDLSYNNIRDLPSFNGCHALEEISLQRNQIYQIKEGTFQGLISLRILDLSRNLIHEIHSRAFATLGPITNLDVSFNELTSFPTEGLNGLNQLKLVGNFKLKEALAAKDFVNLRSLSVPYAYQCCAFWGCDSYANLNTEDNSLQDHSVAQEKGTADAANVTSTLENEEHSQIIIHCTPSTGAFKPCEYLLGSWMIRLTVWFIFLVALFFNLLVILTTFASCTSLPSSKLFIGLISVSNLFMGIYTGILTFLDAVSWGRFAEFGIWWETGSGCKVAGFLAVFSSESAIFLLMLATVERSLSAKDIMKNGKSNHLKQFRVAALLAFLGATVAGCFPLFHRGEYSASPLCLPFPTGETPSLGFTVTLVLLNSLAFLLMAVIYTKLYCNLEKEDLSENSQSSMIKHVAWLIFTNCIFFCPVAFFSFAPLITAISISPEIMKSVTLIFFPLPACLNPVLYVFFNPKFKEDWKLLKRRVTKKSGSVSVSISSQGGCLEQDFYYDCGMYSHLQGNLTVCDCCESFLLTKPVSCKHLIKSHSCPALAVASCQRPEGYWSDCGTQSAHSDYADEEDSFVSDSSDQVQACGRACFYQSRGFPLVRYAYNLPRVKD
Method: (§1) Each tracer candidate was screened across the entire library of HiBiT-GPCR constructs using NanoBRET as the detection modality. As depicted in Figure 4A, the specificity of interactions was evaluated through decrease in BRET due to competitive displacement of a bound tracer by excess parental compound. Each tracer was analyzed for binding to each HiBiT-GPCR fusion in the absence and in the presence of competing parental compound. Briefly, HEK293 cells were transfected with HiBiT-GPCR constructs diluted into promoterless DNA to reduce expression and maximize translocation to the cell surface. Each tracer candidate was then screened at concentrations of 1 μM and 0.1 μM across cells expressing these fusions. Cells were treated for 1.5 h with tracer either alone or in the presence of 20 μM competing parental compound (i.e., control). BRET was measured upon addition of purified LgBiT and subsequent complementation with HiBiT genetically fused to a GPCR. The specificity of interactions was assessed through a decrease in BRET signal due to competitive displacement of the bound tracer. To further gauge the robustness of these interactions, the fold response over the control (i.e., BRETtracer/BRETcontrol) was calculated. We chose a 1.5-fold response, which translates to ≥7-fold signal over noise as the minimal threshold required to score an interaction as positive. […]. Below we highlight the screening results obtained for our exemplary fluorescent tracers based on Clozapine, Amitriptyline and AZD1283.
(§2) HiBiT-GPCR DNA constructs were diluted in 10 mM Tris pH 8 to a final concentration of 0.01 μg/μL, arrayed in 96-well plates and stored at −20 °C. For transfection, HEK293 cells were suspended in Opti-MEM (without phenol red) supplemented with 2% fetal bovine serum (Seradigm) and 100 units/mL penicillin–streptomycin (Gibco) at a final concentration of 220,000 cells/mL and dispensed into white 96-well plates at 90 μL/well. Subsequent transfections and screens were carried using an Agilent Bravo Automated Liquid Handling Platform. First, the 96-well HiBiT DNA arrays were diluted 25-fold in Opti-MEM (without serum or phenol red) to a final concentration of 0.0004 μg/μL and 20 μL of the diluted DNAs were transferred into new 96-well plates. Next, promoterless carrier DNA (1 μg/μL) was diluted 25-fold (0.04 μg/μL) and then dispensed into the diluted arrays at 20 μL/well. Following brief mixing, Viafect transfection reagent (Promega) diluted 16-fold into Opti-MEM was dispensed into the plates at 40 μL/well. After mixing by pipetting, plates were incubated for 10 min on the pipetting station deck. The DNA-transfection reagent complexes were then added to plates containing cells. To facilitate the screen, 10 μL of DNA-transfection reagent complexes were added in duplicates to the top 4 and bottom 4 rows, resulting in two identical 48-well arrays per plate. Plates with transfected cells were incubated for 18–20 h at 37 °C/5% CO2. A screen of each tracer across the entire library using two different concentrations requires duplicate plates of transfected cells. Depending on the number of tracers being screened, transfections can be scaled up using the same ratios. The next day, for each tracer, four 20× screening solutions in tracer dilution buffer (Promega) were prepared: two duplicates at final concentration of 20 μM and two duplicates at a final concentration of 2 μM. A competing unmodified compound was added to one of each duplicate at a final concentration of 400 μM. The four resulting solutions were diluted 4-fold in Opti-MEM without serum or phenol red to generate 5× solutions (5 µM and 0.5 µM tracer +/− 100 μM competing compound). To screen the library, a BioTek MultiFlo FX liquid dispenser was used to dispense 22.5 µL of tracer solution to the top 4 rows and 22.5 µL tracer + competing compound solution to the 4 bottom rows. Plates were briefly mixed on an orbital shaker and incubated for 1.5 h at room temperature. […]

GALR2 = target: T2, GALR2 (Homo sapiens, UniProt O43603); assay: NanoBRET screen HiBiT-GALR2 in HEK293; type: binding
T2 construct: purchased Promega (in-house HiBiT-GPCR construct library, NanoBRET)
T2 sequence (O43603 1-387): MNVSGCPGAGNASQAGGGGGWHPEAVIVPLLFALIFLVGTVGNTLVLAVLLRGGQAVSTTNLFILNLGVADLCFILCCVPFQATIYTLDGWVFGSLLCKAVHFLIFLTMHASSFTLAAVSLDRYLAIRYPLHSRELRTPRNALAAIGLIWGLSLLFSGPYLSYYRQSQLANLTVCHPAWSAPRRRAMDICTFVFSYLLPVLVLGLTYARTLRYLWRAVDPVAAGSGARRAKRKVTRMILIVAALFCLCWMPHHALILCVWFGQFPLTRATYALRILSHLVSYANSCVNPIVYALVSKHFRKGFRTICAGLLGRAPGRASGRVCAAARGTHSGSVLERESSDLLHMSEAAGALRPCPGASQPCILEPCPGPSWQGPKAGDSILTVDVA
Method: as §1, §2

SMILES	NanoBRET Fold Response (LGR4; LGR4, tracer 0.1μM)	NanoBRET Fold Response (LGR4; LGR4, tracer 1μM)	NanoBRET Fold Response (GALR2; GALR2, tracer 0.1μM)	NanoBRET Fold Response (GALR2; GALR2, tracer 1μM)	other results
O=C(CCc1ccc2n1[B-](F)(F)[N+]1=C(c3ccc[nH]3)C=CC1=C2)NCc1ccc(C(=O)NCCOCCC(=O)N[C@@H]2CC[C@@]3(O)[C@H]4Cc5ccc(O)c6c5[C@@]3(CCN4CC3CC3)[C@H]2O6)cc1 [Naltrexone-3-NB590]	0.94	0.87	1.00	0.98	–
CCCn1c(=O)c2[nH]c(-c3ccc(OCC(=O)NCCNC(=O)CCOCCNC(=O)c4ccc(CNC(=O)CCc5ccc6n5[B-](F)(F)[N+]5=C(c7ccc[nH]7)C=CC5=C6)cc4)cc3)nc2n(CCC)c1=O [XAC-3-NB590]	1.02	0.99	1.07	0.96	–
CC(C)N(CC[C@H](c1ccccc1)c1cc(CCNC(=O)c2ccc(CNC(=O)CCc3ccc4n3[B-](F)(F)[N+]3=C(c5ccc[nH]5)C=CC3=C4)cc2)ccc1O)C(C)C [Tolterodine-BZ-NB590]	1.02	1.02	0.99	1.08	–
COc1ccc2[nH]c(-c3ccc(CNC(=O)CCOCCOCCOCCOCCNC(=O)CCc4ccc5n4[B-](F)(F)[N+]4=C(c6ccc[nH]6)C=CC4=C5)cc3)c(CCNC(C)=O)c2n1 [AzomelatoninICO9-2-NB590]	–	–	–	–	NanoBRET Fold Response (LGR4; 0.1μM tracer): 1.10; NanoBRET Fold Response (LGR4; 1μM tracer): 1.00; NanoBRET Fold Response (GALR2; 0.1μM tracer): 0.92; NanoBRET Fold Response (GALR2; 1μM tracer): 1.01
CN1CCN(C2=Nc3cc(Cl)ccc3N(CC(=O)NCCOCCOCCOCCOCCNC(=O)CCc3ccc4n3[B-](F)(F)[N+]3=C(c5ccc[nH]5)C=CC3=C4)c3ccccc32)CC1 [Clozapine-c-2-NB590]	–	–	–	–	NanoBRET Fold Response (LGR4; LGR4, 0.1μM tracer): 0.96; NanoBRET Fold Response (LGR4; LGR4, 1μM tracer): 1.03; NanoBRET Fold Response (GALR2; GALR2, 0.1μM tracer): 1.00; NanoBRET Fold Response (GALR2; GALR2, 1μM tracer): 1.05
COc1ccccc1N1CCN(CCCCN2C(=O)c3ccc(CNC(=O)CCOCCNC(=O)c4ccc(CNC(=O)CCc5ccc6n5[B-](F)(F)[N+]5=C(c7ccc[nH]7)C=CC5=C6)cc4)cc3C2=O)CC1 [NAN-190-3-NB590]	0.88	0.95	1.03	1.00	–
Cc1nc2n(c(=O)c1CCN1CCC(c3noc4cc(F)ccc34)CC1)CCCC2OC(=O)NCCOCCOCCOCCOCCNC(=O)CCc1ccc2n1[B-](F)(F)[N+]1=C(c3ccc[nH]3)C=CC1=C2 (stereo not shown) [Risperidone-2-NB590]	0.93	0.98	1.03	0.97	–
O=C(CCOCCOCCOCCOCCNC(=O)CCc1ccc2n1[B-](F)(F)[N+]1=C(c3ccc[nH]3)C=CC1=C2)NCCCN1CCN(C2=Nc3ccccc3Oc3ccc(Cl)cc32)CC1 [Loxapine-a-2-NB590]	0.97	1.04	1.09	1.12	–
COc1ccccc1N1CCN(CCCCN2C(=O)c3ccc(CNC(=O)CCOCCOCCOCCOCCNC(=O)CCc4ccc5n4[B-](F)(F)[N+]4=C(c6ccc[nH]6)C=CC4=C5)cc3C2=O)CC1 [NAN-190-2-NB590]	1.09	0.99	1.00	0.99	–
CC(C)N(CC[C@H](c1ccccc1)c1cc(CCNC(=O)CCOCCOCCOCCOCCNC(=O)CCc2ccc3n2[B-](F)(F)[N+]2=C(c4ccc[nH]4)C=CC2=C3)ccc1O)C(C)C [Tolterodine-2-NB590]	1.12	1.24	0.97	1.09	–
N#CN=C(NCCCOc1cccc(CN2CCCCC2)c1)NCCNC(=O)CCOCCOCCOCCOCCNC(=O)CCc1ccc2n1[B-](F)(F)[N+]1=C(c3ccc[nH]3)C=CC1=C2 [Aminopotentidine-2-NB590]	1.01	1.02	0.94	0.99	–
CCOC(=O)c1cc(C#N)c(N2CCC(C(=O)NS(=O)(=O)Cc3ccccc3/C=C/C(=O)NCCNC(=O)CCc3ccc4n3[B-](F)(F)[N+]3=C(c5ccc[nH]5)C=CC3=C4)CC2)nc1C [AZD1283-1-NB590]	–	–	–	–	NanoBRET Fold Response (LGR4; LGR4, 0.1μM): 1.01; NanoBRET Fold Response (LGR4; LGR4, 1μM): 0.97; NanoBRET Fold Response (GALR2; GALR2, 0.1μM): 1.09; NanoBRET Fold Response (GALR2; GALR2, 1μM): 1.04
CN(C)CCC=C1c2ccccc2CCc2ccc(C(=O)NCCNC(=O)CCOCCOCCOCCOCCNC(=O)CCc3ccc4n3[B-](F)(F)[N+]3=C(c5ccc[nH]5)C=CC3=C4)cc21 [Amitriptyline-b-2-NB590]	–	–	–	–	NanoBRET Fold Response (LGR4; tracer at 0.1μM): 1.00; NanoBRET Fold Response (LGR4; tracer at 1μM): 0.98; NanoBRET Fold Response (GALR2; tracer at 0.1μM, listed as amitriptyline-b-2-NB590): 1.10; NanoBRET Fold Response (GALR2; tracer at 1μM, listed as amitriptyline-b-2-NB590): 1.11
CN(C)CCC=C1c2ccccc2CCc2ccc(C(=O)NCCNC(=O)CCOCCOCCOCCOCCNC(=O)CCc3ccc4n3[B-](F)(F)[N+]3=C(c5ccc[nH]5)C=CC3=C4)cc21 [Amitriptyline-a-2-NB590]	–	–	–	–	NanoBRET Fold Response (GALR2; tracer at 0.1μM): 1.02; NanoBRET Fold Response (GALR2; tracer at 1μM): 0.99
O=C(CCc1ccc2n1[B-](F)(F)[N+]1=C(c3ccc[nH]3)C=CC1=C2)NCCOCCOCCNC(=O)OCCOCCN1CCN(C2=Nc3ccccc3Sc3ccccc32)CC1 [Quetiapine-a-2-NB590]	1.00	1.05	1.01	0.83	–
